# Laboratory results reported in patent US20060246099A1 (L'OREAL, priority 2005, published 2006).
# Key:
# [1] = test system: human striated muscle cells innervated with explants of rat embryonic rachidian ganglia and spinal cord; assay: Nerve-muscle coculture test (muscle fibre contractions); type: cell-based; settings: 60 seconds incubation
# Procedure: The compounds of Examples 1 and 2 were tested on a model of nerve-muscle coculture, which makes it possible to recreate a motor arc by innervating human striated muscle cells with explants of rat embryonic rachidian ganglia and spinal cord.
# Human muscle cells, obtained from samples of striated muscle from healthy donors, are inoculated into wells of cross section 1.8 cm^2 (24-well culture dishes). After culturing for ten days, these cells form a monolayer and fuse. At this stage, explants of embryonic spinal cord from a 13-day-old rat, containing the rachidian ganglia, are placed on the culture.
# The growth of the neurites is visible beyond the spinal cord explant after one day of culture. The first contractions of the muscle fibres are observed after five to six days of coculture, and after three weeks all the muscle fibres in the region of the explants contract.
# The cocultures are used after 21 days, when the muscle fibres are striated and contain mature differentiated neuromuscular junctions.
# A muscle fibre showing regular contractions (at least 60 contractions per minute) is then selected from three different culture wells and the number of contractions is counted over 30 seconds. […] At the end of incubation, the number of contractions is again counted over 30 seconds. […]
# [2] = test system: type L calcium channels, verapamil site; assay: Binding to type L calcium channels, [3H](-)-D888 displacement; set-up: species or system rat; settings: similar test, concentration of 50 μM
# Procedure: The studies are performed using rat cerebral cortex homogenates (isolated membranes containing at their surface type L calcium channels) according to the method described by Reynolds I. J. et al., 1986, J. Pharmacol. Exp. Ther., 237, p. 731.
# The experimental conditions are as follows:
# D888, which is [^3H] (−)-demethoxyverapamil, serves as a radiolabelled specific ligand, and D600, which is (±)-methoxyverapamil hydrochloride, serves as a reference molecule.
# The specific binding of a ligand (labelled D888) to the receptors (type L calcium channels, verapamil site) is defined as being the difference between the total binding and the non-specific binding determined in the presence of an excess of cold (non-radioactive) ligand. The results are expressed as a percentage of inhibition of the specific binding of the control in the presence of the test compound.
# [3] = test system: human striated muscle cells innervated with explants of rat embryonic rachidian ganglia and spinal cord; settings: validation of the model; cited from earlier work
# [4] = in vivo; cited from earlier work
Molecule,% inhibition of contractions ([1]; 10 μM) [%],% inhibition of contractions ([1]; 100 μM) [%],inhibition of the specific binding of the control to the calcium channels [2] [%],inhibition of muscle fibre contractions [3],anti-wrinkle activity [4]
1-(2-phenylethyl)-4-(3-phenylpropyl)-piperazine [Compound 2],50,100,50,,
CN1C(=O)CN=C(c2ccccc2)c2cc(Cl)ccc21 [diazepam],,,,inhibited muscle fibre contractions,anti-wrinkle activity has been demonstrated in vivo
